Patent US10650228B2, “Devices and methods for analyzing animal behavior” (Children's Medical Center Corporation, priority 2015, dated 2020)

Assays:
mice = experiment: FTIR-generated paw luminance after intraplantar injection of capsaicin to the left hind paw; format: in vivo; conditions: 180 minutes after intraplantar injection (5 μl, 0.1%) to the left hind paw; FIG. 14B
Protocol: FIG. 14C illustrates that the luminance values of left and right hind paws are no different in naïve mice 0-30 minutes after being placed in chamber.

mouse = experiment: FTIR imaging of weight bearing after experimental induction of inflammatory pain in the left hind paw; format: in vivo; conditions: mouse with induced inflammation in left hind paw, analgesic given before FTIR imaging; FIG. 8 at right
Description: FIG. 8 illustrates examples of FTIR recordings that detect analgesic efficacy, with great sensitivity. […] For example, the FTIR images are brighter in areas where there is greater relative pressure exerted by the hind paw than in areas where there is less relative pressure exerted.

Row | Compound | FTIR paw luminance (weight bearing), uninjured right vs injected left hind paw (mice) | weight shift to the uninjured leg (FTIR imaging, analgesic efficacy) (mouse)
1 | COc1cc(CNC(=O)CCCC/C=C/C(C)C)ccc1O [capsaicin] | significantly increased luminance (weight bearing) in the uninjured (right) paw compared to the capsaicin-injected left paw | 
2 | O=C(O)Cc1ccccc1Nc1c(Cl)cccc1Cl [diclofenac] |  | does not shift its weight to the uninjured leg
